Values quoted from earlier work in patent US10172810B2 (priority 2003, dated 2019).

Details: pH 6.8

Q: For `CN1CCCC1c1cccnc1` (stereo not shown) [nicotine], which “nicotine in the free base form” value is on record?
A: about 10%
